The record followed here is patent US10577365B2, “Derivatives of quinoline as inhibitors of DYRK1A and/or DYRK1B kinases” (Felicitex Therapeutics, Inc., priority 2016, dated 2020).

Where a name gives a salt, the structure may show the parent alone. Read-outs that look alike come from different tables or passages of the source.

One assay addresses T1, DYRK1A (Homo sapiens, UniProt Q13627).
T1 construct: purchased Carna Bioscence (Carna Biosciences) 04-130
In words: DYRK1A in vitro kinase assay (ADP-Glo). In kind it is biochemical. As to conditions: ATP 70 μM (Km), substrate 3 μM, enzyme 2 nM or 0.7 nM, 30 min, rt. The procedure: The compounds of the present invention were tested for their inhibitory activity against DYRK1A and DYRK1B kinases once or several times. When tested more than once, the data are reported herein as average value, wherein the average value, also referred to as the mean value, represents the sum of obtained values divided by the number of times tested.
DYRK-inhibitory activity of the compounds of the present invention was tested using the ADP-Glo™ assay as described in the following paragraphs. The procedure for determining the IC50 values with the ADP-Glo™ assay in in vitro kinase assays consists of two parts:
1. Kinase reaction performed under optimized conditions;
2. Detection of ADP as a product of the reaction using ADP-Glo™ system (Promega).
The tested compounds indicated in Table 5 below were dissolved in DMSO, then transferred to the V-bottom PP plate to perform nine serial dilutions (in order to obtain dose-response curves) in 25% DMSO, as indicated in Table 5 below.
The optimized conditions for performing DYRK1A in vitro kinase assay were as follows:
For compound testing, the following protocol was used: two mixes were prepared on ice, Mix 1 containing substrate, ATP and reaction buffer and Mix 2 containing reaction buffer and the kinase. 15 μL per well of Mix 1 was transferred to wells of a 96-well plate. Next, 2.5 μL of the pre-diluted compound to be tested was added to Mix 1, followed by the addition of 12.5 μL of Mix 2. Total reaction volume was 30 μL per well. The experiment was performed in duplicate for each data point being examined. Dose response curve for the positive control was carried out on each assay plate by adding the reference inhibitory compound staurosporine. For each test, three controls were also included: (i) 30 μL of the reaction mixture containing: reaction buffer, ATP, kinase, DMSO without substrate (quasi-positive control); (ii) 30 μL of the reaction mixture containing reaction buffer, substrate, ATP, DMSO without kinase (background control); (iii) 30 μL of the reaction mixture containing reaction buffer, substrate, kinase, ATP, DMSO (vehicle control). Final concentration of DMSO in the reaction was 2%. To detect the ADP amount produced during the kinase reaction, the commercially available kit ADP-Glo™ Kinase Assay (Promega, cat. No # V9103) was used. The protocol used for the detection was based on the Technical Bulletin of the ADP-Glo™ Kinase Assay (Promega) and was adapted to 96-well plate containing 30 μL reaction mixture as explained below.
30 μL of ADP-Glo™ Reagent was added to each well of a 96 well plate containing 30 μL of reaction mixture to terminate the kinase reaction and deplete the remaining ATP. The plate was incubated for 60 minutes on a shaker at rt. 60 μL of Kinase Detection Solution was then added to each well of 96-well plate containing 60 μL of the solution to convert ADP to ATP and to allow the newly synthesized ATP to be measured using a luciferase/luciferin reaction (ratio of kinase reaction volume to ADP Glo™ Reagent volume to Kinase Detection Solution volume was maintained at 1:1:2). The plate was incubated for 40 minutes on a shaker at rt, protected from light. Luminescence was measured in the plate reader, wherein the luminescent signal is proportional to the ADP concentration produced and thus correlates with kinase activity.
After data normalization to controls (complete reaction mix and no-substrate control) and transforming X values (test compound concentrations) using: X=log(X), IC50 values were determined, using the GraphPad Prism 6.0 [log(agonist) vs. normalized response—Variable slope].

Another assay deals with T2, DYRK1B (Homo sapiens, UniProt Q9Y463).
T2 construct: purchased Carna Bioscence (Carna Biosciences) 04-131
T2 sequence (Q9Y463 whole entry): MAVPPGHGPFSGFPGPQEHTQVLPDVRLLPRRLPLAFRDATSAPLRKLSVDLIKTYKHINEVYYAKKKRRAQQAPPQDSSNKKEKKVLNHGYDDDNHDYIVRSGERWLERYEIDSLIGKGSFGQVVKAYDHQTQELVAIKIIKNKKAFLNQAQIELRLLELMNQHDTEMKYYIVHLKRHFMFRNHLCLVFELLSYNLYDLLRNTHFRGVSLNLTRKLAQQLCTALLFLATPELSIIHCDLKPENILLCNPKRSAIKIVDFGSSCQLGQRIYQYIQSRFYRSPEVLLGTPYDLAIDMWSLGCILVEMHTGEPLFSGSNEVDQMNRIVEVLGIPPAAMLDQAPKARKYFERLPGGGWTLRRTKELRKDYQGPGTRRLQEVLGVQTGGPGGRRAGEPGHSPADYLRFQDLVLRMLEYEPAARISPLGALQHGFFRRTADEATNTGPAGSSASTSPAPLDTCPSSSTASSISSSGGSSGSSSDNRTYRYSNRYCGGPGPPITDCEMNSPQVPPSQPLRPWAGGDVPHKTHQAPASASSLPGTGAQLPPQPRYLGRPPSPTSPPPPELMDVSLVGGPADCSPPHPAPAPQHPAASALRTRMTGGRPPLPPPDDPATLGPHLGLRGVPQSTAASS
Briefly: DYRK1B in vitro kinase assay (ADP-Glo). In kind it is biochemical. The procedure: The compounds of the present invention were tested for their inhibitory activity against DYRK1A and DYRK1B kinases once or several times. When tested more than once, the data are reported herein as average value, wherein the average value, also referred to as the mean value, represents the sum of obtained values divided by the number of times tested. DYRK-inhibitory activity of the compounds of the present invention was tested using the ADP-Glo™ assay as described in the following paragraphs. The procedure for determining the IC50 values with the ADP-Glo™ assay in in vitro kinase assays consists of two parts: […] Kinase reaction performed under optimized conditions; 2. Detection of ADP as a product of the reaction using ADP-Glo™ system (Promega). The tested compounds indicated in Table 5 below were dissolved in DMSO, then transferred to the V-bottom PP plate to perform nine serial dilutions (in order to obtain dose-response curves) in 25% DMSO, as indicated in Table 5 below. The optimized conditions for performing DYRK1B in vitro kinase assay were as follows: [table] For compound testing, the following protocol was used: two mixes were prepared on ice, Mix 1 containing substrate, ATP and reaction buffer and Mix 2 containing reaction buffer and the kinase. 15 μL per well of Mix 1 was transferred to wells of a 96-well plate. […] Total reaction volume was 30 μL per well. The experiment was performed in duplicate for each data point being examined. Dose response curve for the positive control was carried out on each assay plate by adding the reference inhibitory compound staurosporine. For each test, three controls were also included: (i) 30 μL of the reaction mixture containing: reaction buffer, ATP, kinase, DMSO without substrate (quasi-positive control); (ii) 30 μL of the reaction mixture containing reaction buffer, substrate, ATP, DMSO without kinase (background control); (iii) 30 μL of the reaction mixture containing reaction buffer, substrate, kinase, ATP, DMSO (vehicle control). Final concentration of DMSO in the reaction was 2%. To detect the ADP amount produced during the kinase reaction, the commercially available kit ADP-Glo™ Kinase Assay (Promega, cat. No # V9103) was used. The protocol used for the detection was based on the Technical Bulletin of the ADP-Glo™ Kinase Assay (Promega) and was adapted to 96-well plate containing 30 μL reaction mixture as explained below. 30 μL of ADP-Glo™ Reagent was added to each well of a 96 well plate containing 30 μL of reaction mixture to terminate the kinase reaction and deplete the remaining ATP. The plate was incubated for 60 minutes on a shaker at rt. 60 μL of Kinase Detection Solution was then added to each well of 96-well plate containing 60 μL of the solution to convert ADP to ATP and to allow the newly synthesized ATP to be measured using a luciferase/luciferin reaction (ratio of kinase reaction volume to ADP Glo™ Reagent volume to Kinase Detection Solution volume was maintained at 1:1:2). The plate was incubated for 40 minutes on a shaker at rt, protected from light. Luminescence was measured in the plate reader, wherein the luminescent signal is proportional to the ADP concentration produced and thus correlates with kinase activity. After data normalization to controls (complete reaction mix and no-substrate control) and transforming X values (test compound concentrations) using: X=log(X), IC50 values were determined, using the GraphPad Prism 6.0 [log(agonist) vs. normalized response—Variable slope].
(In general: ADP-Glo turns the ADP formed in a reaction into a luminescent signal.)

Where [1] appears, read: ADP-Glo assay, ATP 15 μM (Km), substrate 7 μM, enzyme 1 nM or 0.3 nM, 1 h, rt, read-out: DYRK1B IC50.

Consider `C=CC1CN2CCC1CC2[C@H](O)c1ccnc2ccc(-c3c[nH]c4ncccc34)cc12` (stereo in doubt) [Example 9, {5-Ethenyl-1-azabicyclo[2.2.2]octan-2-yl}(6-{1H-pyrrolo[2,3-b]pyridin-3-yl}quinolin-4-yl)methanol], for which the IC50 against DYRK1A and on DYRK1B (setting [1]) was below 10 nM in each case.

`Clc1ccnc2ccc(-c3c[nH]c4ncccc34)cc12` [Example 1, 4-Chloro-6-{1H-pyrrolo[2,3-b]pyridin-3-yl}quinoline]: the IC50 (commonly the concentration that inhibits the measured activity by half) at DYRK1A fell in the range of 10 to 100 nM.

In the case of `c1cnc2ccc(-c3c[nH]c4ncccc34)cc2c1` [Example 2, 6-{1H-Pyrrolo[2,3-b]pyridin-3-yl}quinoline], the IC50 at DYRK1A and at DYRK1B (setting [1]) was below 10 nM throughout.

Regarding `N[C@H]1CCCN(c2ccnc3ccc(-c4c[nH]c5ncccc45)cc23)C1` [Example 3, (3S)-1-(6-{1H-Pyrrolo[2,3-b]pyridin-3-yl}quinolin-4-yl)piperidin-3-amine], the IC50 against DYRK1A and at DYRK1B (setting [1]) was below 10 nM throughout.

The molecule `N[C@H]1CC[C@H](Nc2ccnc3ccc(-c4c[nH]c5ncccc45)cc23)CC1` [Example 4, trans-1-N-(6-{1H-Pyrrolo[2,3-b]pyridin-3-yl}quinolin-4-yl)cyclohexane-1,4-diamine] yielded an IC50 against DYRK1A above 100 nM.

For `N[C@H]1CCN(c2ccnc3ccc(-c4c[nH]c5ncccc45)cc23)C1` [Example 5, (3S)-1-(6-{1H-Pyrrolo[2,3-b]pyridin-3-yl}quinolin-4-yl)pyrrolidin-3-amine], on DYRK1A, the IC50 was below 10 nM.

On to `c1cncc(-c2ccnc3ccc(-c4c[nH]c5ncccc45)cc23)c1` [Example 6, 4-(Pyridin-3-yl)-6-{1H-pyrrolo[2,3-b]pyridin-3-yl}quinoline], for which the IC50 on DYRK1A and on DYRK1B (setting [1]) was below 10 nM throughout.

As for `c1cnc2[nH]cc(-c3ccc4nccc(-c5ccncc5)c4c3)c2c1` [Example 7, 4-(Pyridin-4-yl)-6-{1H-pyrrolo[2,3-b]pyridin-3-yl}quinoline], the IC50 at DYRK1A and on DYRK1B (setting [1]) was below 10 nM throughout.

As to `c1ccc(-c2ccnc3ccc(-c4c[nH]c5ncccc45)cc23)cc1` [Example 8, 4-Phenyl-6-{1H-pyrrolo[2,3-b]pyridin-3-yl}quinoline], the IC50 against DYRK1A and on DYRK1B (setting [1]) was below 10 nM throughout.

Regarding `CN1CCC(Nc2ccnc3ccc(-c4c[nH]c5ncccc45)cc23)CC1` [Example 10, N-(1-Methylpiperidin-4-yl)-6-{1H-pyrrolo[2,3-b]pyridin-3-yl}quinolin-4-amine], the IC50 on DYRK1B (setting [1]) lay within 10 to 100 nM.

Turning to `Clc1cc(-c2c[nH]c3ncccc23)cc2cccnc12` [Example 11, 8-Chloro-6-{1H-pyrrolo[2,3-b]pyridin-3-yl}quinoline hydrochloride], the IC50 at DYRK1A and on DYRK1B (setting [1]) was below 10 nM in each case.

As to `Cc1cc(-c2c[nH]c3ncccc23)cc2cccnc12` [Example 12, 8-Methyl-6-{1H-pyrrolo[2,3-b]pyridin-3-yl}quinoline hydrochloride], on DYRK1B, the IC50 was in the range of 10 to 100 nM.

For `Fc1cc(-c2c[nH]c3ncccc23)cc2cccnc12` [Example 13, 8-Fluoro-6-{1H-pyrrolo[2,3-b]pyridin-3-yl}quinoline], the IC50 at DYRK1A and at DYRK1B (setting [1]) was below 10 nM in each case.

On to `FC(F)(F)Oc1cc(-c2c[nH]c3ncccc23)cc2cccnc12` [Example 14, 6-{1H-Pyrrolo[2,3-b]pyridin-3-yl}-8-(trifluoromethoxy)quinoline], for which the figures for the IC50 against DYRK1A and at DYRK1B (setting [1]) were above 100 nM and 10 to 100 nM, respectively.

Consider `COc1cc(-c2c[nH]c3ncccc23)cc2cccnc12` [Example 15, 8-Methoxy-6-{1H-pyrrolo[2,3-b]pyridin-3-yl}quinoline], for which the IC50 at DYRK1B (setting [1]) lay within 10 to 100 nM.

On to `c1cnc2[nH]cc(-c3ccc4ncc(NCc5ccoc5)cc4c3)c2c1` [Example 16, N-(Furan-3-ylmethyl)-6-{1H-pyrrolo[2,3-b]pyridin-3-yl}quinolin-3-amine], for which the IC50 at DYRK1A and at DYRK1B (setting [1]) was below 10 nM each time.

As for `Cc1cc(-c2c[nH]c3ncccc23)cc2c(-c3ccccc3)ccnc12` [Example 17, 8-Methyl-4-phenyl-6-{1H-pyrrolo[2,3-b]pyridin-3-yl}quinoline], the IC50 against DYRK1A and at DYRK1B (setting [1]) was above 100 nM in each case.

Regarding `Cc1cc(-c2c[nH]c3ncccc23)cc2c(-c3cccnc3)ccnc12` [Example 18, 8-Methyl-4-(pyridin-3-yl)-6-{1H-pyrrolo[2,3-b]pyridin-3-yl}quinoline], the IC50 at DYRK1B (setting [1]) is 10 to 100 nM.

On to `Fc1cc(-c2c[nH]c3ncccc23)cc2c(-c3cccnc3)ccnc12` [Example 19, 8-Fluoro-4-(pyridin-3-yl)-6-{1H-pyrrolo[2,3-b]pyridin-3-yl}quinoline], for which the IC50 on DYRK1A and at DYRK1B (setting [1]) was below 10 nM in each case.

Take `CNC(=O)c1cnc2[nH]cc(-c3cc(OC)c4ncccc4c3)c2c1` [Example 29, 3-(8-Methoxyquinolin-6-yl)-N-methyl-1H-pyrrolo[2,3-b]pyridine-5-carboxamide]: the IC50 on DYRK1B (setting [1]) was 10 to 100 nM.

Regarding `CNC(=O)c1cnc2[nH]cc(-c3cc(C)c4nccc(-c5cccnc5)c4c3)c2c1` [Example 42, N-Methyl-3-[8-methyl-4-(pyridin-3-yl)quinolin-6-yl]-1H-pyrrolo[2,3-b]pyridine-5-carboxamide], at DYRK1B (setting [1]), the IC50 was 10 to 100 nM.

Regarding `CN1CCC(Nc2c(C#N)cnc3ccc(-c4c[nH]c5ncccc45)cc23)CC1` [Example 64, 4-[(1-Methylpiperidin-4-yl)amino]-6-{1H-pyrrolo[2,3-b]pyridin-3-yl}quinoline-3-carbonitrile], at DYRK1B (setting [1]), the IC50 fell in the range of 10 to 100 nM.
